Key:
Type in all cases: cell-based, human
SW620 cells [1] = test: Ribosome profiling of SW620 cells (transcription, translational rate, translational efficiency); conditions: 8 hours
Experimental: SW620 human colon cancer cells were cultured in DMEM media supplemented with penicillin G (100 U/ml), streptomycin (100 μg/ml), and 10% FBS in a humidified atmosphere of 5% CO2 maintained at 37° C.
(§1) SW620 cells (ATCC, passage 12) were seeded at about 75% confluence 24 hrs prior to drug treatment. […] About 6×10^6 cells/10 cm plate and about 1×10^6 cells/well of a 6-well plate were harvested for ribosome profiling and Western blot analysis, respectively, following drug treatment.

SW620 cells [2] = test: Western blot of phosphorylation of protein translation components in SW620 cells
Experimental: as §1
Cells were washed with PBS and lysed in 1× cell lysis buffer (Cell Signaling) for 15 min at 4° C. Lysates were sonicated briefly, clarified by centrifugation for 15 min at 14, 000 rpm, and supernatants were then collected. Protein concentration in the soluble fraction was determined by BCA protein assay (Thermo Scientific). A 4-20% Bis-Tris gradient gel (Invitrogen) was used to resolve 20 μg of protein and transferred to nitrocellulose membrane. The resulting membranes were blocked for 1 hr at room temperature with Odyssey blocking solution (LI-COR) and then incubated with primary antibodies at 4° C. overnight. The following day, the blots were washed 3 times, 10 min each in TBST, and incubated with IR-conjugated goat anti-rabbit IgG secondary antibody (IRDye 800 CW at 1:20,000; LI-COR) for 1 hour at room temperature. The blots were then washed, scanned, and specific proteins were detected using the LI-COR Odyssey infrared imager. The following antibodies from Cell Signaling were used at 1:1000 dilution: anti-phospho-eIF4E(Ser209)(#9741), anti-phospho-rpS6(Ser235/236)(#4858), anti-phospho-ERK1/2(Thr202/Tyr204)(#4370), anti-phospho-p70S6K(Thr421/Ser424)(#9204), anti-phospho-p90RSK(Thr359/Ser363)(#9344), anti-phospho-4EBP(Ser65), anti-phospho-pAKT(Ser473), anti-phospho-eIF4E(Ser209), and anti-β-actin (#4970). Actin was used as a loading amount control.

SW620 cells [3] = test: Proliferation assay on SW620 cells

In the case of `CC(=O)Nc1cccc(-n2c(=O)n(C3CC3)c(=O)c3c(Nc4ccc(I)cc4F)n(C)c(=O)c(C)c32)c1` [GSK212], the “Profile TE” value (SW620 cells [1]; gene LIF, 250 nM) is reported as 0.9 log2 MEKi/DMSO, the Profile rna (SW620 cells [1]; gene LIF, 250 nM) is reported as −1.7 log2 MEKi/DMSO and the Profile rpf (SW620 cells [1]; gene LIF, 250 nM) is reported as −0.9 log2 MEKi/DMSO. For the same compound, the “Profile TE” value (SW620 cells [1]; gene LNK/SH2B3, 250 nM) was −0.9 log2 MEKi/DMSO, the Profile rna (SW620 cells [1]; gene LNK/SH2B3, 250 nM) was 0.2 log2 MEKi/DMSO and the Profile rpf (SW620 cells [1]; gene LNK/SH2B3, 250 nM) was −0.7 log2 MEKi/DMSO. For the same compound, the “Profile TE” value (SW620 cells [1]; gene MAFF, 250 nM) was 0.6 log2 MEKi/DMSO, the Profile rna (SW620 cells [1]; gene MAFF, 250 nM) was −1.7 log2 MEKi/DMSO and the Profile rpf (SW620 cells [1]; gene MAFF, 250 nM) was −1.1 log2 MEKi/DMSO. For the same compound, the “Profile TE” value (SW620 cells [1]; gene MAP2K3, 250 nM) was 1.0 log2 MEKi/DMSO, the Profile rna (SW620 cells [1]; gene MAP2K3, 250 nM) was −1.6 log2 MEKi/DMSO and the Profile rpf (SW620 cells [1]; gene MAP2K3, 250 nM) was −0.6 log2 MEKi/DMSO. The “Profile TE” value (SW620 cells [1]; gene MYC, 250 nM) was −0.3 log2 MEKi/DMSO, the Profile rna (SW620 cells [1]; gene MYC, 250 nM) was −1.3 log2 MEKi/DMSO and the Profile rpf (SW620 cells [1]; gene MYC, 250 nM) was −1.6 log2 MEKi/DMSO. The “Profile TE” value (SW620 cells [1]; gene PHLDA2, 250 nM) was 1.1 log2 MEKi/DMSO, the Profile rna (SW620 cells [1]; gene PHLDA2, 250 nM) was −2.1 log2 MEKi/DMSO and the Profile rpf (SW620 cells [1]; gene PHLDA2, 250 nM) was −1.1 log2 MEKi/DMSO. For the same compound, the “Profile TE” value (SW620 cells [1]; gene PLK3, 250 nM) was 0.7 log2 MEKi/DMSO, the Profile rna (SW620 cells [1]; gene PLK3, 250 nM) was −3.1 log2 MEKi/DMSO and the Profile rpf (SW620 cells [1]; gene PLK3, 250 nM) was −2.4 log2 MEKi/DMSO. For the same compound, the “Profile TE” value (SW620 cells [1]; gene POLR1C, 250 nM) was 0.2 log2 MEKi/DMSO, the Profile rna (SW620 cells [1]; gene POLR1C, 250 nM) was −0.8 log2 MEKi/DMSO and the Profile rpf (SW620 cells [1]; gene POLR1C, 250 nM) was −0.6 log2 MEKi/DMSO. The “Profile TE” value (SW620 cells [1]; gene POLR3G, 250 nM) was −0.1 log2 MEKi/DMSO, the Profile rna (SW620 cells [1]; gene POLR3G, 250 nM) was −0.7 log2 MEKi/DMSO and the Profile rpf (SW620 cells [1]; gene POLR3G, 250 nM) was −0.8 log2 MEKi/DMSO. For the same compound, the “Profile TE” value (SW620 cells [1]; gene PPAN, 250 nM) was −0.7 log2 MEKi/DMSO, the Profile rna (SW620 cells [1]; gene PPAN, 250 nM) was −0.4 log2 MEKi/DMSO and the Profile rpf (SW620 cells [1]; gene PPAN, 250 nM) was −1.1 log2 MEKi/DMSO. For the same compound, the “Profile TE” value (SW620 cells [1]; gene PPAT, 250 nM) was −0.3 log2 MEKi/DMSO, the Profile rna (SW620 cells [1]; gene PPAT, 250 nM) was −0.4 log2 MEKi/DMSO and the Profile rpf (SW620 cells [1]; gene PPAT, 250 nM) was −0.7 log2 MEKi/DMSO. The “Profile TE” value (SW620 cells [1]; gene PYCRL, 250 nM) was 0.1 log2 MEKi/DMSO, the Profile rna (SW620 cells [1]; gene PYCRL, 250 nM) was −0.2 log2 MEKi/DMSO and the Profile rpf (SW620 cells [1]; gene PYCRL, 250 nM) was 0.0 log2 MEKi/DMSO. For the same compound, the “Profile TE” value (SW620 cells [1]; gene RRS1, 250 nM) was 0.1 log2 MEKi/DMSO, the Profile rna (SW620 cells [1]; gene RRS1, 250 nM) was −0.9 log2 MEKi/DMSO and the Profile rpf (SW620 cells [1]; gene RRS1, 250 nM) was −0.8 log2 MEKi/DMSO. The “Profile TE” value (SW620 cells [1]; gene SEMA6A, 250 nM) was −1.5 log2 MEKi/DMSO, the Profile rna (SW620 cells [1]; gene SEMA6A, 250 nM) was 2.3 log2 MEKi/DMSO and the Profile rpf (SW620 cells [1]; gene SEMA6A, 250 nM) was 0.7 log2 MEKi/DMSO. The “Profile TE” value (SW620 cells [1]; gene SLC1A5, 250 nM) was −0.3 log2 MEKi/DMSO, the Profile rna (SW620 cells [1]; gene SLC1A5, 250 nM) was −0.1 log2 MEKi/DMSO and the Profile rpf (SW620 cells [1]; gene SLC1A5, 250 nM) was −0.5 log2 MEKi/DMSO. The “Profile TE” value (SW620 cells [1]; gene SLC4A7, 250 nM) was −0.9 log2 MEKi/DMSO, the Profile rna (SW620 cells [1]; gene SLC4A7, 250 nM) was −0.2 log2 MEKi/DMSO and the Profile rpf (SW620 cells [1]; gene SLC4A7, 250 nM) was −1.1 log2 MEKi/DMSO. The “Profile TE” value (SW620 cells [1]; gene SPRED2, 250 nM) was −1.3 log2 MEKi/DMSO, the Profile rna (SW620 cells [1]; gene SPRED2, 250 nM) was −2.1 log2 MEKi/DMSO and the Profile rpf (SW620 cells [1]; gene SPRED2, 250 nM) was −3.5 log2 MEKi/DMSO. For the same compound, the “Profile TE” value (SW620 cells [1]; gene SPRY2, 250 nM) was 0.4 log2 MEKi/DMSO, the Profile rna (SW620 cells [1]; gene SPRY2, 250 nM) was −1.7 log2 MEKi/DMSO and the Profile rpf (SW620 cells [1]; gene SPRY2, 250 nM) was −1.3 log2 MEKi/DMSO. For the same compound, the “Profile TE” value (SW620 cells [1]; gene SPRY4, 250 nM) was −2.0 log2 MEKi/DMSO, the Profile rna (SW620 cells [1]; gene SPRY4, 250 nM) was −5.2 log2 MEKi/DMSO and the Profile rpf (SW620 cells [1]; gene SPRY4, 250 nM) was −7.1 log2 MEKi/DMSO. For the same compound, the “Profile TE” value (SW620 cells [1]; gene TNC, 250 nM) was −1.6 log2 MEKi/DMSO, the Profile rna (SW620 cells [1]; gene TNC, 250 nM) was 1.1 log2 MEKi/DMSO and the Profile rpf (SW620 cells [1]; gene TNC, 250 nM) was −0.5 log2 MEKi/DMSO. For the same compound, the “Profile TE” value (SW620 cells [1]; gene TNFRSF12A, 250 nM) was 0.2 log2 MEKi/DMSO, the Profile rna (SW620 cells [1]; gene TNFRSF12A, 250 nM) was −2.2 log2 MEKi/DMSO and the Profile rpf (SW620 cells [1]; gene TNFRSF12A, 250 nM) was −2.0 log2 MEKi/DMSO. The “Profile TE” value (SW620 cells [1]; gene WDR3, 250 nM) was −1.0 log2 MEKi/DMSO, the Profile rna (SW620 cells [1]; gene WDR3, 250 nM) was 0.0 log2 MEKi/DMSO and the Profile rpf (SW620 cells [1]; gene WDR3, 250 nM) was −1.0 log2 MEKi/DMSO. The “Profile TE” value (SW620 cells [1]; gene YRDC, 250 nM) was 0.1 log2 MEKi/DMSO, the Profile rna (SW620 cells [1]; gene YRDC, 250 nM) was −0.7 log2 MEKi/DMSO and the Profile rpf (SW620 cells [1]; gene YRDC, 250 nM) was −0.6 log2 MEKi/DMSO. For the same compound, the “phosphorylation of S6, eIF4E and 4EBP1” value (SW620 cells [2]; 25 nM to 100 nM (data not shown)) was “little or no effect”, the “Phosphorylation of ERK and p90RSK” value (SW620 cells [2]; 250 nM, 8 hrs) was “completely inhibited” and the “phosphorylation of eIF4E” value (SW620 cells [2]; 250 nM, 8 hrs) was “partial inhibition”. The “phosphorylation of the ribosomal protein S6 (rpS6) and S6K (p70RSK)” value (SW620 cells [2]; 250 nM, 8 hrs) was “only partial inhibition”, the “inhibition of proliferation or induction of apoptosis” value (SW620 cells [3]; 250 nM for 8 hours) was “No evidence” and the “potency in 72 hour proliferation assays” value (SW620 cells [3]; 72 hour (data not shown)) was 20 to 30 nM.
